Source: patent US6737383B1, “Herbicidal oxadiazolidines” (priority 1999, dated 2004)

Assays:
velvetleaf = experiment: Test B pre/postemergence velvetleaf; assay type: in vivo, Abutilon theophrasti
How it was run: (§1)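 Herbicidal effect was estimated by eye on a ten-point control scale after plants spent twelve to sixteen days in a greenhouse following soil or foliar treatment. Foliar sprays targeted plants at one to four leaves; all doses were formulated in a non-phytotoxic solvent with surfactant.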

surinam grass = experiment: Test B pre/postemergence surinam grass; assay type: in vivo, Brachiaria decumbens
How it was run: as §1

purple nutsedge = experiment: Test B pre/postemergence purple nutsedge; assay type: in vivo, Cyperus rotundus
How it was run: as §1

duck salad = experiment: Test B flood test duck salad; assay type: in vivo, Heteranthera limosa; conditions: for Plant response rating, Ducksalad: scale 0 to 10, 0 is no effect, 10 is complete control; for Ducksalad plant response rating: scale of 0 to 10 where 0 is no effect and 10 is complete control
How it was run: (§2)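 Each value is a visual injury score relative to controls, with 10 meaning complete control and 0 no effect. Evaluation took place twelve to sixteen days after the 2-leaf-stage plants were treated and kept in the greenhouse.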

wheat = experiment: Test B pre/postemergence wheat; assay type: in vivo, Triticum aestivum
How it was run: as §1

corn = experiment: Test B pre/postemergence corn; assay type: in vivo, Zea mays
How it was run: as §1

giant foxtail = experiment: Test B pre/postemergence giant foxtail; assay type: in vivo, Setaria faberii
How it was run: as §1

crabgrass = experiment: Test B pre/postemergence crabgrass; assay type: in vivo, Digitaria sanguinalis
How it was run: as §1

rape = experiment: Test B pre/postemergence rape; assay type: in vivo, Brassica napus
How it was run: as §1

rice = experiment: Test B flood test rice; assay type: in vivo, Oryza sativa; conditions: for Rice plant response rating: scale of 0 to 10 where 0 is no effect and 10 is complete control
How it was run: as §2

pigweed = experiment: Test B pre/postemergence pigweed; assay type: in vivo, Amaranthus retroflexus
How it was run: as §1

soybean = experiment: Test B pre/postemergence soybean; assay type: in vivo, Glycine max
How it was run: as §1

wild oat = experiment: Test B pre/postemergence wild oat; assay type: in vivo, Avena fatua
How it was run: as §1

morningglory = experiment: Test B pre/postemergence morningglory; assay type: in vivo, Ipomoea hederacea
How it was run: as §1

blackgrass = experiment: Test B pre/postemergence blackgrass; assay type: in vivo, Alopecurus myosuroides
How it was run: as §1

[1] = Postemergence, Rate 250 g/ha, scale 0 to 10, 0 is no effect, 10 is complete control
[2] = Postemergence, Rate 500 g/ha, scale of 0 to 10 where 0 is no effect and 10 is complete control
[3] = Preemergence, Rate 62 g/ha, scale 0 to 10 (0 no effect, 10 complete control)
[4] = Preemergence, Rate 125 g/ha, scale of 0 to 10 where 0 is no effect and 10 is complete control
[5] = Preemergence, Rate 250 g/ha, scale 0 to 10, 0 is no effect, 10 is complete control
[6] = Preemergence, Rate 500 g/ha, scale 0 to 10, 0 is no effect, 10 is complete control
[7] = Rate 62 g/ha, Postemergence, scale of 0 to 10 where 0 is no effect and 10 is complete control
[8] = Postemergence, Rate 125 g/ha, scale 0 to 10, 0 is no effect, 10 is complete control
[9] = Preemergence, Rate 250 g/ha, scale of 0 to 10 where 0 is no effect and 10 is complete control
[10] = Postemergence section (flood test species), Rate 500 g/ha
[11] = Rate 62 g/ha, Postemergence (flood test species)

**Q.** Which results are given for CCOC(=O)C=C(Cn1c(=O)on(C(=O)N(c2ccc(F)cc2)C(C)C)c1=O)OCC [Compound 396]?
**A.** Plant response rating, Velvetleaf (velvetleaf; [1]): 0; Velvetleaf plant response rating (velvetleaf; [2]): 0; Plant response rating, Velvetleaf (velvetleaf; [3]): 0; Plant response rating, Velvetleaf (velvetleaf; [4]): 0; Velvetleaf plant response rating (velvetleaf; [5]): 0; Velvetleaf plant response rating (velvetleaf; [6]): 0; Velvetleaf plant response rating (velvetleaf; [7]): 0; Plant response rating, B. signalgrass (surinam grass; [8]): 0; Plant response rating, B. signalgrass (surinam grass; [1]): 0; B. signalgrass plant response rating (surinam grass; [2]): 0; Plant response rating, B. signalgrass (surinam grass; [3]): 0; Plant response rating, B. signalgrass (surinam grass; [4]): 0; B. signalgrass plant response rating (surinam grass; [9]): 3; B. signalgrass plant response rating (surinam grass; Preemergence, Rate 500 g/ha, scale of 0 to 10 where 0 is no effect and 10 is complete control): 5; B. signalgrass plant response rating (surinam grass; [7]): 0; Plant response rating, Nutsedge (purple nutsedge; [1]): 0; Nutsedge plant response rating (purple nutsedge; [2]): 0; Plant response rating, Nutsedge (purple nutsedge; [3]): 0; Plant response rating, Nutsedge (purple nutsedge; [4]): 0; Nutsedge plant response rating (purple nutsedge; [5]): 0; Nutsedge plant response rating (purple nutsedge; [6]): 0; Nutsedge plant response rating (purple nutsedge; [7]): 0; Plant response rating, Ducksalad (duck salad; Postemergence (flood test), Rate 125 g/ha): 0; Ducksalad plant response rating (duck salad; [10]): 0; Ducksalad plant response rating (duck salad; [11]): 0; Plant response rating, Ducksalad (duck salad; flood test species, listed under Postemergence, Rate 250 g/ha): 0; Wheat plant response rating (wheat; [2]): 0; Plant response rating, Wheat (wheat; [3]): 0; Plant response rating, Wheat (wheat; [4]): 0; Wheat plant response rating (wheat; [5]): 0; Wheat plant response rating (wheat; [6]): 0; Wheat plant response rating (wheat; [7]): 0; Plant response rating, Corn (corn; [8]): 0; Plant response rating, Corn (corn; [1]): 0; Corn plant response rating (corn; [2]): 0; Plant response rating, Corn (corn; [3]): 0; Plant response rating, Corn (corn; [4]): 0; Corn plant response rating (corn; [5]): 0; Corn plant response rating (corn; [6]): 0; Corn plant response rating (corn; [7]): 0; Plant response rating, Giant foxtail (giant foxtail; [8]): 0; Plant response rating, Giant foxtail (giant foxtail; [1]): 2; Giant foxtail plant response rating (giant foxtail; [2]): 2; Plant response rating, Giant foxtail (giant foxtail; [3]): 2; Plant response rating, Giant foxtail (giant foxtail; [4]): 10; Giant foxtail plant response rating (giant foxtail; [5]): 10; Giant foxtail plant response rating (giant foxtail; [6]): 10; Giant foxtail plant response rating (giant foxtail; [7]): 0; Plant response rating, Crabgrass (crabgrass; [8]): 0; Plant response rating, Crabgrass (crabgrass; [1]): 2; Crabgrass plant response rating (crabgrass; [2]): 2; Plant response rating, Crabgrass (crabgrass; [3]): 0; Plant response rating, Crabgrass (crabgrass; [4]): 7; Crabgrass plant response rating (crabgrass; [5]): 10; Crabgrass plant response rating (crabgrass; [6]): 10; Crabgrass plant response rating (crabgrass; [7]): 0; Plant response rating, Rape (rape; [1]): 0; Rape plant response rating (rape; [2]): 6; Plant response rating, Rape (rape; [3]): 0; Plant response rating, Rape (rape; [4]): 0; Rape plant response rating (rape; [5]): 0; Rape plant response rating (rape; [6]): 0; Rape plant response rating (rape; [7]): 0; Rice plant response rating (rice; [10]): 0; Rice plant response rating (rice; [11]): 0; Plant response rating, Rice (rice; flood test species, listed under Postemergence, Rate 250 g/ha, scale 0 to 10, 0 is no effect, 10 is complete control): 0; Plant response rating, Redroot pigweed (pigweed; [1]): 0; Redroot pigweed plant response rating (pigweed; [2]): 0; Plant response rating, Redroot pigweed (pigweed; [3]): 0; Plant response rating, Redroot pigweed (pigweed; [4]): 0; Redroot pigweed plant response rating (pigweed; [5]): 4; Redroot pigweed plant response rating (pigweed; [6]): 8; Redroot pigweed plant response rating (pigweed; [7]): 0; Plant response rating, Soybean (soybean; [1]): 3; Soybean plant response rating (soybean; [2]): 6; Plant response rating, Soybean (soybean; [3]): 0; Plant response rating, Soybean (soybean; [4]): 0; Soybean plant response rating (soybean; [5]): 0; Soybean plant response rating (soybean; [6]): 0; Soybean plant response rating (soybean; [7]): 2; Wild oats plant response rating (wild oat; [2]): 0; Plant response rating, Wild oats (wild oat; [3]): 0; Plant response rating, Wild oats (wild oat; [4]): 0; Wild oats plant response rating (wild oat; [5]): 2; Wild oats plant response rating (wild oat; [6]): 4; Wild oats plant response rating (wild oat; [7]): 0; Plant response rating, Morningglory (morningglory; [1]): 8; Morningglory plant response rating (morningglory; [2]): 8; Plant response rating, Morningglory (morningglory; [3]): 0; Plant response rating, Morningglory (morningglory; [4]): 0; Morningglory plant response rating (morningglory; [5]): 0; Morningglory plant response rating (morningglory; [6]): 0; Morningglory plant response rating (morningglory; [7]): 0; Plant response rating, Blackgrass (blackgrass; [8]): 2; Plant response rating, Blackgrass (blackgrass; [1]): 3; Blackgrass plant response rating (blackgrass; [2]): 6; Plant response rating, Blackgrass (blackgrass; [3]): 0; Plant response rating, Blackgrass (blackgrass; [4]): 0; Blackgrass plant response rating (blackgrass; [9]): 3; Blackgrass plant response rating (blackgrass; [6]): 5; Blackgrass plant response rating (blackgrass; [7]): 0
